Values after ≈ are worked out from the molar mass of the structure shown.
Columns and labels:
RAW264.7 [1] = experiment: Antiinflammatory activity in mouse RAW264.7 cells assessed as inhibition of LPS-induced nitric oxide production by spectrophotometric analysis; assay type: functional, cell-based
RAW264.7 [2] = experiment: Cytotoxicity against mouse RAW264.7 cells by Alamar Blue assay; assay type: cell-based
Saccharomyces cerevisiae = experiment: Antifungal activity against Saccharomyces cerevisiae ATCC 2345 by NCCLS method; assay type: functional
Candida albicans [3] = experiment: Antifungal activity against Candida albicans ATCC MYA-2876 by NCCLS method; assay type: functional
Candida albicans [4] = experiment: Antifungal activity against Candida albicans ATCC 18804 by NCCLS method; assay type: functional

SMILES | IC50 (RAW264.7 [1]) | Activity (RAW264.7 [2]) | MIC (Saccharomyces cerevisiae) | MIC (Candida albicans [3]) | MIC (Candida albicans [4])
CO[C@H]1[C@@H](O)[C@H](O)[C@H](OC[C@@]23C[C@@H]4[C@H](C)CC[C@H]4[C@@]4(C=O)C[C@@H]2C(=O)C(=C(C)C)[C@@]34C(=O)O)O[C@@H]1C | 327 µM | Non-toxic | – | – | –
N=C(NCCC[C@H](N)C(=O)O)N[N+](=O)[O-] [NITROARGININE] | 146 µM | – | – | – | –
N=C(N)NN [PIMAGEDINE] | 22.3 µM | – | – | – | –
CO[C@H]1[C@@H](O)[C@H](O)[C@H](OC[C@@]23C[C@@H]4[C@H](C)CC[C@H]4[C@@]4(C=O)CC2C=C(C(C)C)[C@@]34C(=O)O)O[C@@H]1C [SORDARIN] | 157 µM | Non-toxic | 32 µg/mL (≈ 65 µM) | 32 µg/mL (≈ 65 µM) | 64 µg/mL (≈ 130 µM)
